Our source for the inhibition and Ki values is patent US6420397B1, “Heteroaryl protease inhibitors and diagnostic imaging agents” (3-Dimensional Pharmaceuticals, Inc., priority 1999, dated 2002).

For one test, the target named is T1, human factor Xa (Homo sapiens, UniProt P00742).
T1 construct: purchased Enzyme Research Laboratories (South Bend, Indiana)
Nature of the test: In vitro inhibition of purified enzymes: Factor Xa (p-nitroanilide substrate hydrolysis). Particulars: read-out: Factor Xa % inhibition @ conc. It is filed as biochemical. The source says:
(§1) Reagents: All buffer salts were obtained from Sigma Chemical Company (St. Louis, Mo.), and were of the highest purity available. The enzyme substrate N-benzoyl-Ile-Glu-Gly-Arg-p-nitroanilide hydrochloride (Sigma B2291) was obtained from Sigma. N-succinyl-Ala-Ala-Pro-Arg-p-nitroanilide (BACHEM L-1720) was obtained from BACHEM (King of Prussia, Pa.). Human α-thrombin and human factor Xa were obtained from Enzyme Research Laboratories (South Bend, Indiana).
Ki Determinations: All assays are based on the ability of the test compound to inhibit the enzyme catalyzed hydrolysis of a peptide p-nitroanilide substrate. […] In general, substrate concentrations are lower than the experimentally determined value for Km. […]
In a typical Ki determnination, into each well of a 96 well plate is pipetted […] of substrate solution, […] of test compound solution, and the plate allowed to thermally equilibrate at 37° C. in a Molecular Devices plate reader for >15 minutes. Reactions were initiated by the addition of a […] aliquot of enzyme and the absorbance increase at 405 nm is recorded for 15 minutes. […] The ratio of the velocity (rate of change in absorbance as a function of time) for a sample containing no test compound is divided by the velocity of a sample containing test compound, and is plotted as a function of test compound concentration. […]

For the next test, the target named is T2, Human α-thrombin (Homo sapiens, UniProt P00734).
T2 construct: Purified human α-thrombin was diluted into assay buffer; purchased Enzyme Research Laboratories (South Bend, Indiana)
Nature of the test: In vitro inhibition of purified enzymes: thrombin Ki determination (p-nitroanilide substrate hydrolysis). It is filed as biochemical. The following applies: substrate N-succinyl-Ala-Ala-Pro-Arg-p-nitroanilide, 37° C., pH 7.5.
Description: as §1
Ki Determinations: All assays are based on the ability of the test compound to inhibit the enzyme catalyzed hydrolysis of a peptide p-nitroanilide substrate. In a typical Ki determination, substrate is prepared in DMSO, and diluted into an assay buffer consisting of 50 mM HEPES, 200 mM NaCl, pH 7.5. The final concentrations for each of the substrates is listed below. In general, substrate concentrations are lower than the experimentally determined value for Km. Test compounds are prepared as a 1.0 mg/ml solution in DMSO. Dilutions are prepared in DMSO yielding 8 final concentrations encompassing a 200 fold concentration range. Enzyme solutions are prepared at the concentrations listed below in assay buffer.
In a typical Ki determnination, into each well of a 96 well plate is pipetted […] of substrate solution, […] of test compound solution, and the plate allowed to thermally equilibrate at 37° C. in a Molecular Devices plate reader for >15 minutes. Reactions were initiated by the addition of a […] aliquot of enzyme and the absorbance increase at 405 nm is recorded for 15 minutes. Data corresponding to less than 10% of the total substrate hydrolysis were used in the calculations. The ratio of the velocity (rate of change in absorbance as a function of time) for a sample containing no test compound is divided by the velocity of a sample containing test compound, and is plotted as a function of test compound concentration. The data are fit to a linear regression, and the value of the slope of the line calculated. The inverse of the slope is the experimentally determined Ki value.
Thrombin: Thrombin activity was assessed as the ability to hydrolyze the substrate N-succinyl-Ala-Ala-Pro-Arg-p-nitroanilide. Substrate solutions were prepared at a concentration of […] in assay buffer. Final DMSO concentration was 4.3%. Purified human α-thrombin was diluted into assay buffer to a concentration of 15 nM. Final reagent concentrations were: [thrombin]=0.5 nM, [substrate N-succinyl-Ala-Ala-Pro-Arg-p-nitroanilide]=32 mM.

T1 sequence (P00742 235-488 limits assumed): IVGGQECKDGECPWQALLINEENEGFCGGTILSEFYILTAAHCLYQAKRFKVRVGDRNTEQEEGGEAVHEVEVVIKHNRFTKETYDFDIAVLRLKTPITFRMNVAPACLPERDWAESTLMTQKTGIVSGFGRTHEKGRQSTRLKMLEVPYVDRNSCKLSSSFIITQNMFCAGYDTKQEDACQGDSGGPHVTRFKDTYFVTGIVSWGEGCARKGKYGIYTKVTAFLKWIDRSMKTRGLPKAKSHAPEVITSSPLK
T1 sequence (P00742 41-179 limits assumed): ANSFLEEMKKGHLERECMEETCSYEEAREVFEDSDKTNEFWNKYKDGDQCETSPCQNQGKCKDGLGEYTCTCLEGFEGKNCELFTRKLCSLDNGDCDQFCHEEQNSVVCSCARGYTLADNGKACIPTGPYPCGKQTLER

Consider `Cc1ccc(NS(=O)(=O)Cc2ccccc2I)c(=O)n1CC(=O)N[C@@H](CCONC(=N)N)C(=O)c1nc2ccccc2s1` [Example 2, N-{(1S)-1-[2-(Amidinoaminooxy)ethyl]-2-benzothiazol-2-yl-2-oxoethyl}-2-[3-({[(2-iodophenyl)methyl]sulfonyl}amino)-6-methyl-2-oxohydropyridyl]acetamide], for which, on human factor Xa (@ 13 μM), the inhibition – broadly, the percentage by which the read-out fell short of the control – at 13 µM was determined as 51%. The affinity on Human α-thrombin corresponds to a Ki of 75 nM. For the compound `Cc1ccc(NS(=O)(=O)c2cccc(I)c2)c(=O)n1CC(=O)N[C@@H](CCONC(=N)N)C(=O)c1nccs1` [Example 3, N-{(1S)-1-[2-(Amidinoaminooxy)ethyl]-2-oxo-2-(1,3-thiazol-2-yl)ethyl}-2-(3-{[(3-iodophettyl)sulfonyl]amino}-6-methyl-2-oxohydropyridyl)acetamide], on Human α-thrombin, the Ki – broadly, the equilibrium dissociation constant of an inhibitor or competing ligand from its target – came out at 45 nM.

As for `Cc1ccc(NS(=O)(=O)c2cccc(I)c2)c(=O)n1CC(=O)N[C@@H](CCONC(=N)N)C(=O)c1nc2ccccc2s1` [Example 4, N-{(1S)-1-[2-(Amidinoaminooxy)ethyl]-2-benzothiazol-2-yl-2-oxoethyl}-2-(3-{[(3-iodopheityl)sulfonyl]amino}-6-methyl-2-oxohydropyridyl)acetamide], the Ki on Human α-thrombin amounted to 17 nM. `Cc1ccc(NS(=O)(=O)Cc2ccccc2I)c(=O)n1CC(=O)N[C@@H](CCONC(=N)N)C(=O)c1nccs1` [Example 1, N-{(1S)-1-[2-(Amidinoaminooxy)ethyl]-2-oxo-2-(1,3-thiazol-2-yl)ethyl}-2-[3-({[(2-iodophenyl)methyl]sulfonyl}amino)-6-methyl-2-oxohydropyridyl]acetamide]: on human factor Xa (@ 20 μM), the inhibition at 20 µM was determined as 16%. The compound also gave an inhibition constant (Ki) on Human α-thrombin of 14 nM.
